This note sets out measurements from patent publication US10202350B2, “MCT4 inhibitors for treating disease” (Vettore, LLC, priority 2015, dated 2019).

Bounds are passed on as bounds.

Type in all cases: cell-based
One assay concerns the target MCT1 (Homo sapiens (Human), UniProt P53985). As to the kind of experiment: MCT1-mediated lactate transport in BT20 breast cancer cells. The note with it: native MCT1, 10 mM L-lactate. As for the experimental part:
(§1) 10 μL of a 30 mM DMSO stock of BCECF-AM ester (Life Technologies) is added and the cells are incubated at 37° C. for 5 min. The cells are pelleted (300 g, 5 min), washed once with 1 mL Tyrode's Solution, pH 7.4, re-pelleted (300 g, 5 min), and resuspended in 1 mL Tyrode's Solution, pH 7.4.
(§2) 2.5 μL BCECF-loaded cells, along with either 10 μL DMSO or 100×compound in DMSO, are added to 937.5 μL of Tyrode's Solution in a quartz 1.0 mL cuvette (PerkinElmer, B0631116). […] After establishing baseline BCECF fluorescence (around 10-20 s), 50 μL of 1 M sodium L-lactate (Sigma-Aldrich) is added to the cuvette (final concentration: 50 mM) and rapidly mixed. The time-dependent decrease in BCECF fluorescence (490/440 ratio) may be fit to an exponential decay curve (Prism GraphPad) to determine the rate of lactate transport.
Assay 4: MCT1-Mediated Lactate Transport in BT20 Breast Cancer Cells.
Preparation of BCECF loaded cells are as described for Assay 1. Lactate transport assay is as described for Assay 1, except 10 mM L-lactate (rather than 50 mM) is added.

The target of assay [1] is T1, MCT4 (Homo sapiens (Human), UniProt O15427). As to the kind of experiment: Lactate transport in MCT4-expressing MDA-MB-453 breast cancer cells (BCECF). The note with it: MDA-MB-453 cells stably expressing MCT4; 50 mM L-lactate. Here is the method: Assay 1: Lactate Transport in MCT4-Expressing MDA-MB-453 Breast Cancer Cells. […] The following is an exemplary procedure for assaying MCT4 activity of the compounds of Formula (I). Preparing BCECF-Loaded Cells: […] The cells are pelleted (300 g, 5 min), washed once with 1 mL Tyrode's Solution, pH 7.4, re-pelleted (300 g, 5 min), and resuspended in 1 mL Tyrode's Solution, pH 7.4. Lactate Transport Assay: […] Fluorescence measurements are performed on a PerkinElmer LS55 fluorescence spectrometer with dual excitation wavelengths achieved using a filter wheel (FL Winlab program: Fast Filter; […] Emission 535). After establishing baseline BCECF fluorescence (around 10-20 s), 50 μL of 1 M sodium L-lactate (Sigma-Aldrich) is added to the cuvette (final concentration: 50 mM) and rapidly mixed.
T1 sequence (O15427 whole entry, looked up): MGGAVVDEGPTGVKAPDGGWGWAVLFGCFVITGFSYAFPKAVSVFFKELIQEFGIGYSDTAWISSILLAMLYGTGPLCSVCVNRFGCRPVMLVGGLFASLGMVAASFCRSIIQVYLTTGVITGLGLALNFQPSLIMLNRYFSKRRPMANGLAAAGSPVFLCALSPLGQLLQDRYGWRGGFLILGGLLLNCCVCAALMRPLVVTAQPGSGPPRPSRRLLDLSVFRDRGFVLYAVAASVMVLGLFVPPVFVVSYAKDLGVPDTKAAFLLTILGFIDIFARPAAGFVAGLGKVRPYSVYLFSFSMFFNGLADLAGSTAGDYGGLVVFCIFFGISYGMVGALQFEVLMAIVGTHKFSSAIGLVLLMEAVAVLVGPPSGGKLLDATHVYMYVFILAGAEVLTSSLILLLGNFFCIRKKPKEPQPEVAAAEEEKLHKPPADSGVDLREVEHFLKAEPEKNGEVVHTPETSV
T1 sequence (P35613 whole entry partner, looked up): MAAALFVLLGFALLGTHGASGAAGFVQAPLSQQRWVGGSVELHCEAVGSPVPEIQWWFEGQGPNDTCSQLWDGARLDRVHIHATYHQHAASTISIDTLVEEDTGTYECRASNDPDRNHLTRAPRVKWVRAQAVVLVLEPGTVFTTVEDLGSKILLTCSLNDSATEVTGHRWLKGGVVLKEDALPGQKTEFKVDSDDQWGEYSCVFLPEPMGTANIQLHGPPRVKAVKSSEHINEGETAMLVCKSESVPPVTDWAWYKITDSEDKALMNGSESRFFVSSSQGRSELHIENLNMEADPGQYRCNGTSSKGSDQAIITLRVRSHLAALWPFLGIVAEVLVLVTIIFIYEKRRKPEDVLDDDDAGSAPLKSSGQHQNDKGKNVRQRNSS

The target in assay [2] is T1, MCT4. As to the kind of experiment: MCT4-mediated lactate transport in NCI-H358 lung adenocarcinoma cells. Particulars: native MCT4, 50 mM L-lactate. Here is the method:
Cells (˜7×10^6) are trypsinized (0.05% Trypsin-EDTA), pelleted (300 g, 5 min), and resuspended in 1 mL Tyrode's Solution, pH 7.4 (119 mM NaCl, 5 mM KCl, 25 mM HEPES, pH 7.4, 2 mM CaCl2, 2 mM MgCl2, 6 g/L glucose). 10 μL of a 30 mM DMSO stock of BCECF-AM ester (Life Technologies) is added and the cells are incubated at 37° C. for 5 min. The cells are pelleted (300 g, 5 min), washed once with 1 mL Tyrode's Solution, pH 7.4, re-pelleted (300 g, 5 min), and resuspended in 1 mL Tyrode's Solution, pH 7.4.
2.5 μL BCECF-loaded cells, along with either 10 μL DMSO or 100×compound in DMSO, are added to 937.5 μL of Tyrode's Solution in a quartz 1.0 mL cuvette (PerkinElmer, B0631116). Fluorescence measurements are performed on a PerkinElmer LS55 fluorescence spectrometer with dual excitation wavelengths achieved using a filter wheel (FL Winlab program: Fast Filter; Excitation 490/440; Emission 535). After establishing baseline BCECF fluorescence (around 10-20 s), 50 μL of 1 M sodium L-lactate (Sigma-Aldrich) is added to the cuvette (final concentration: 50 mM) and rapidly mixed. The time-dependent decrease in BCECF fluorescence (490/440 ratio) may be fit to an exponential decay curve (Prism GraphPad) to determine the rate of lactate transport.
Assay 2: MCT4-Mediated Lactate Transport in NCI-H358 Lung Adenocarcinoma Cells.
NCI-H358 lung adenocarcinoma cells may be used to measure MCT4 activity in cells with high native levels of MCT4 and low levels of MCT1 and are known to those with skill in the art. Preparation of BCECF-loaded cells and lactate transport activity may be determined as described for Assay 1.

For assay [3], the target named is T1, MCT4. As to the kind of experiment: MCT4-mediated lactate transport in MDA-MB-231 breast cancer cells. Particulars: MDA-MB-231 cells, native MCT4; 50 mM L-lactate. Here is the method: as §1, §2
Preparation of BCECF-loaded cells and lactate transport activity may be determined as described for Assay 1.

Chain of MCT1 (P53985 whole entry): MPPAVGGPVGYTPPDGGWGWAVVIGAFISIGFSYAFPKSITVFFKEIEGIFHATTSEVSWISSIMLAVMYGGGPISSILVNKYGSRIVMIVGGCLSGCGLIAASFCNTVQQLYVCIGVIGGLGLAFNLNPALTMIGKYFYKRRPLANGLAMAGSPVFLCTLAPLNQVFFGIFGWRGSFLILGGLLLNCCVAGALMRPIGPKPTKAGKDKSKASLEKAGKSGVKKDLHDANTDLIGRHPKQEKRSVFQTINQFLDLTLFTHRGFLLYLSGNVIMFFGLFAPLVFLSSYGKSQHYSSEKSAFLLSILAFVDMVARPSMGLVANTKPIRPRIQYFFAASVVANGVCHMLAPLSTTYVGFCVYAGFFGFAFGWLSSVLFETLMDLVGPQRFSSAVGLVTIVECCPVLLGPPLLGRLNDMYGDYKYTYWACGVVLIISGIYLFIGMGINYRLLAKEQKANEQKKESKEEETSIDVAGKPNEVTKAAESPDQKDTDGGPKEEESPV
Chain of MCT1 (P35613 140-385 partner): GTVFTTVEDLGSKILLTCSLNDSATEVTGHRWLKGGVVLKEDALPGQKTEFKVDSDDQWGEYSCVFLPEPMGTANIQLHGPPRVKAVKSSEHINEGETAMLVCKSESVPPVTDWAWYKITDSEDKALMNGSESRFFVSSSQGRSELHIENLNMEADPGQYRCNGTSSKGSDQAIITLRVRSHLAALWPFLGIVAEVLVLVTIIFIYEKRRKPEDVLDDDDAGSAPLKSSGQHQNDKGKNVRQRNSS

Regarding `CC(C)(OCc1cc(-c2ccc(Cl)cc2)n(Cc2ccccn2)n1)C(=O)O` [Example 22, 2-[[5-(4-Chlorophenyl)-1-(2-pyridylmethyl)pyrazol-3-yl]methoxy]-2-methyl-propanoic acid], the IC50 on MCT1 (Table 2) turned out to be 150000 nM; on MCT4 [1], 14000 nM; on MCT4 [2], 39000 nM.
For `CC(C)(OCc1cc(-c2cccc(C(F)(F)F)c2)n(Cc2ccccc2Cl)n1)C(=O)O` [Example 13, 2-[[1-[(2-Chlorophenyl)methyl]-5-[3-(trifluoromethyl)phenyl]pyrazol-3-yl]methoxy]-2-methyl-propanoic acid], in that order: 17000 nM, 20 nM and 22 nM.
The matching figures for `CC(C)(OCc1cc(-c2cccc(Cl)c2)n(Cc2ccccc2Cl)n1)C(=O)O` [Example 10, 2-[[5-(3-Chlorophenyl)-1-[(2-chlorophenyl)methyl]pyrazol-3-yl]methoxy]-2-methyl-propanoic acid]: 8800 nM, 21 nM and 33 nM.
On to `CC(C)COc1cccc(-c2cc(COC(C)(C)C(=O)O)nn2Cc2ccccc2F)c1` [Example 26, 2-[[1-[(2-Fluorophenyl)methyl]-5-(3-isobutoxyphenyl)pyrazol-3-yl]methoxy]-2-methyl-propanoic acid], for which the IC50 was 27000 nM on MCT1 (Table 3) and 9.4 nM against MCT4 [3].
For the compound `COc1cccc(Cn2nc(COC(C)(C)C(=O)O)cc2-c2cccc(OCC(C)C)c2)c1` [Example 62, 2-([1-[(3-methoxyphenyl)methyl]-5-[3-(2-methylpropoxy)phenyl]-1H-pyrazol-3-yl]methoxy)-2-methylpropanoic acid], the figures for the IC50 at MCT1 (Table 3) and against MCT4 [3] were 27000 nM and 33 nM, respectively.
Consider `CC(C)(OCc1cc(Nc2ccccc2)n(Cc2ccccc2Cl)n1)C(=O)O` [Example 75, 2-([1-[(2-chlorophenyl)methyl]-5-(phenylamino)-1H-pyrazol-3-yl]methoxy)-2-methylpropanoic Acid], for which the IC50 against MCT1 (Table 3) was greater than 100000 nM; against MCT4 [3], 1700 nM.
Regarding `COc1cccc(-c2cc(COC(C)(C)C(=O)O)nn2Cc2ccccc2Br)c1` [Example 30, 2-[[1-[(2-Bromophenyl)methyl]-5-(3-methoxyphenyl)-1H-pyrazol-3-yl]methoxy]-2-methylpropanoic acid], the IC50 was determined as 27000 nM on MCT1 (Table 3) and 8.8 nM at MCT4 [3].
`CC(C)(OCc1cc(-c2cccc(OC3CCC3)c2)n(Cc2ccccc2Cl)n1)C(=O)O` [Example 37, 2-[[1-[(2-Chlorophenyl)methyl]-5-[3-(cyclobutoxy)phenyl]pyrazol-3-yl]methoxy]-2-methyl-propanoic acid]: the IC50 was 8400 nM on MCT1 (Table 3) and 7.6 nM against MCT4 [3].
The matching figures for `COc1ccc(Cn2nc(COC(C)(C)C(=O)O)cc2-c2cccc(OCC(C)C)c2)cc1` [Example 63, 2-([1-[(4-methoxyphenyl)methyl]-5-[3-(2-methylpropoxy)phenyl]-1H-pyrazol-3-yl]methoxy)-2-methylpropanoic acid]: 17000 nM and 37 nM.
Turning to `CC(C)(OCc1cc(-c2cccc(OCC3CC3)c2)n(Cc2ccccc2Cl)n1)C(=O)O` [Example 33, 2-[[1-[(2-Chlorophenyl)methyl]-5-[3-(cyclopropylmethoxy)phenyl]pyrazol-3-yl]methoxy]-2-methyl-propanoic acid], the figures for the IC50 against MCT1 (Table 3) and at MCT4 [3] were 9100 nM and 3.2 nM, respectively.
`CCOc1cccc(-c2cc(COC(C)(C)C(=O)O)nn2Cc2ccccc2Cl)c1` [Example 28, 2-[[1-[(2-Chlorophenyl)methyl]-5-(3-ethoxyphenyl)pyrazol-3-yl]methoxy]-2-methyl-propanoic acid]: the IC50 on MCT1 (Table 3) is 15000 nM; on MCT4 [3] it was 12 nM.
The matching figures for `CC(C)(OCc1cc(-c2ccsc2)n(Cc2ccccc2Cl)n1)C(=O)O` [Example 24, 2-[[1-[(2-Chlorophenyl)methyl]-5-(3-thienyl)pyrazol-3-yl]methoxy]-2-methyl-propanoic acid]: greater than 100000 nM and 30 nM.
For the compound `COc1cccc(-c2cc(COC3(C(=O)O)CCC3)nn2Cc2ccccc2Cl)c1` [Example 41, 1-[[1-[(2-Chlorophenyl)methyl]-5-(3-methoxyphenyl)pyrazol-3-yl]methoxy]cyclobutanecarboxylic acid], the results for the IC50 at MCT1 (Table 3) and on MCT4 [3] were 1200 nM and 55 nM, respectively.
`CC(C)(OCc1cc(-c2cccc(N3CCOCC3)c2)n(Cc2ccccc2Cl)n1)C(=O)O` [Example 46, 2-[[1-[(2-Chlorophenyl)methyl]-5-(3-morpholinophenyl)pyrazol-3-yl]methoxy]-2-methyl-propanoic acid]: the IC50 against MCT1 (Table 3) was determined as 47000 nM; on MCT4 [3], 142 nM.
The matching figures for `CN(C)c1cccc(-c2cc(COC(C)(C)C(=O)O)nn2Cc2ccccc2Cl)c1` [Example 50, 2-([1-[(o-Chlorophenyl)methyl]-5-[m-(dimethylamino)phenyl]-1H-pyrazol-3-yl]methoxy)-2-methylpropionic acid]: 34000 nM and 70 nM.
The matching figures for `COc1ccccc1Cn1nc(COC(C)(C)C(=O)O)cc1-c1cccc(OCC(C)C)c1` [Example 61, 2-([1-[(2-methoxyphenyl)methyl]-5-[3-(2-methylpropoxy)phenyl]-1H-pyrazol-3-yl]methoxy)-2-methylpropanoic acid]: 11000 nM and 3.1 nM.
The matching figures for `CC(C)(OCc1cc(-c2cscn2)n(Cc2ccccc2Cl)n1)C(=O)O` [Example 47, 2-([1-[(o-Chlorophenyl)methyl]-5-(1,3-thiazol-4-yl)-1H-pyrazol-3-yl]methoxy)-2-methylpropionic acid]: greater than 100000 nM and 410 nM.
As for `CC(C)(OCc1cc(-c2cccc(OCC(F)(F)F)c2)n(Cc2ccccc2Cl)n1)C(=O)O` [Example 43, 2-[[1-[(2-Chlorophenyl)methyl]-5-[3-(2,2,2-trifluoroethoxy)phenyl]pyrazol-3-yl]methoxy]-2-methyl-propanoic acid], the IC50 is greater than 33000 nM on MCT1 (Table 3) and 13 nM against MCT4 [3].
Consider `CC(C)NC(=O)c1cccc(-c2cc(COC(C)(C)C(=O)O)nn2Cc2ccccc2Cl)c1` [Example 74, 2-([1-[(o-Chlorophenyl)methyl]-5-[m-(isopropylamino)carbonylphenyl]-1H-pyrazol-3-yl]methoxy)-2-methylpropionic Acid], for which the IC50 against MCT1 (Table 3) is greater than 100000 nM; on MCT4 [3], 6400 nM.
On to `CC(C)(OCc1cc(-c2ccc(Cl)cc2)n(Cc2cccnc2)n1)C(=O)O` [Example 23, 2-[[5-(4-Chlorophenyl)-1-(3-pyridylmethyl)pyrazol-3-yl]methoxy]-2-methyl-propanoic acid], for which the values for the IC50 at MCT4 [1] and at MCT4 [2] were 1500 nM and 2100 nM, respectively.
Take `CC(C)(OCc1cc(-c2cccc(C#N)c2)n(Cc2ccccc2Cl)n1)C(=O)O` [Example 48, 2-([1-[(o-Chlorophenyl)methyl]-5-(m-cyanophenyl)-1H-pyrazol-3-yl]methoxy)-2-methylpropionic acid]: the IC50 at MCT1 (Table 3) amounted to 55000 nM; against MCT4 [3] it was 89 nM.

The IC50 is the concentration that gives 50% inhibition.
